In article PMC11300463, “Structure basis for sugar specificity of gustatory receptors in insects” (Cell Discovery, 2024):

Experiments:
Assay type in all cases: cell-based
[1] = target: T1, DmGr64a (Drosophila melanogaster, UniProt P83293); assay: calcium imaging, HEK293 cells; conditions: activation
T1 construct: gene Gr64a; expressed in HEK293 cells for function; purified homotetramer for cryo-EM; residues Y234, W260, F333, L338, L339, F342, E399, F403, I420, V438, L439, Q441
T1 sequence (P83293 1-456): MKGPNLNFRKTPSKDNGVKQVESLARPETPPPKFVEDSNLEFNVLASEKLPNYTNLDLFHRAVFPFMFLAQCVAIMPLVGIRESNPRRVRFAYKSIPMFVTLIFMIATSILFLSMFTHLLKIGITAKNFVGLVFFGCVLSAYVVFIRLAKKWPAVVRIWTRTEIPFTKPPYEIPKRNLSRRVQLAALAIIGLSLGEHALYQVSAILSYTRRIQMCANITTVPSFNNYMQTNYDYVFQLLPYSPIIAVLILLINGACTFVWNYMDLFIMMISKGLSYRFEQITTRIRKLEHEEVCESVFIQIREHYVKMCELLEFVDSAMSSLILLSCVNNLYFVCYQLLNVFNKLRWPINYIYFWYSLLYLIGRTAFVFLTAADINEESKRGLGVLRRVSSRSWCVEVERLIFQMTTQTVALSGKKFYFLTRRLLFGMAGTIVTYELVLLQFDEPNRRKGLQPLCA

[2] = target: T1, DmGr64a; assay: calcium imaging, HEK293 cells
[3] = target: T2, DmoGr43a (Drosophila mojavensis, UniProt B4KNE2); assay: electrophysiology, HEK293 cells; conditions: activation; also calcium imaging; cryo-EM structure of complex
T2 construct: gene Dmoj\GI20824; expressed in HEK293 cells for function; purified homotetramer for cryo-EM; printed residues R70, Y312, F313, F315, L386, I418, L419, I420, F422
T2 sequence (B4KNE2 1-427): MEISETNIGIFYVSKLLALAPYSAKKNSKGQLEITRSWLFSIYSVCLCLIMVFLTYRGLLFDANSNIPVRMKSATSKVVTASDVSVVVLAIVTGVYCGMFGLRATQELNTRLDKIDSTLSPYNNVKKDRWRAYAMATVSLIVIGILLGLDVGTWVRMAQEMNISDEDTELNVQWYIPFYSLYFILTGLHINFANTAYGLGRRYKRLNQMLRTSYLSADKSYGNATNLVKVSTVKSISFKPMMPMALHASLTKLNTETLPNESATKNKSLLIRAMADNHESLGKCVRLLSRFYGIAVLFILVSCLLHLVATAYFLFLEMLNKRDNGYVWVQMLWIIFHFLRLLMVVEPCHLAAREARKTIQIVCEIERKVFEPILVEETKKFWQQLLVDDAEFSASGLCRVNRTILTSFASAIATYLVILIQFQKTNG

Row | EC50 [2] [mM] | EC50 [3] [mM] | SMILES | calcium imaging, HEK293 cells [1]
1 |  |  | OC[C@H]1O[C@H](O[C@H]2O[C@H](CO)[C@@H](O)[C@H](O)[C@H]2O)[C@H](O)[C@@H](O)[C@@H]1O [trehalose] | several sugars including fructose, trehalose, sucrose and maltose were able to activate DmGr64a
2 | ~1.77 |  | OC[C@H]1O[C@@](CO)(O[C@H]2O[C@H](CO)[C@@H](O)[C@H](O)[C@H]2O)[C@@H](O)[C@@H]1O [sucrose] | 
3 |  |  | OC[C@H]1O[C@H](O[C@H]2[C@H](O)[C@@H](O)C(O)O[C@@H]2CO)[C@H](O)[C@@H](O)[C@@H]1O (some centres unmarked) [maltose] | several sugars including fructose, trehalose, sucrose and maltose were able to activate DmGr64a
4 |  | 43 ± 4.69 | OCC1(O)OC[C@@H](O)[C@@H](O)[C@@H]1O (some centres unmarked) [fructose] | several sugars including fructose, trehalose, sucrose and maltose were able to activate DmGr64a
